Columns and labels:
5XFAD/Rubicon KO mice [1] = assay: Novel object recognition in 5XFAD/Rubicon KO mice; assay type: in vivo, mouse
Experimental: (§1) 5XFAD/Rubicon KO mice received vehicle (0.5% w/v methylcellulose/0.1% w/v Tween® 80 in water) or VEN-02XX (0.01, 1, or 20 mg/kg) every day by oral gastric gavage for 9 weeks.
Mice were acclimated to the testing room for 48 h. For habituation, mice were allowed to explore an open-field box (50 cm × 50 cm) for 15 min per day over the course of 48 h. Mice were then exposed to two identical objects for 10 min on the day of testing. One hour later, a novel object was introduced, and mice were allowed to explore for 5 min during the test phase. The time spent exploring each object was quantified using AnyMaze video tracking software using the manufacturer define NOR protocol. Novel object preference (%) and the discrimination index (time with novel)/(novel + familiar) * 100) were calculated for each mouse using AnyMaze software.

[2] = system: NLRP3 inflammasome, IL-1β release in mouse whole blood; assay: Mouse whole-blood in vitro assay (LPS, ATP, secreted IL-1β); assay type: cell-based
Experimental: Blood was collected from CD1 female mice in lithium-Heparin tubes (Sarstedt, Numbrecht, Germany). Freshly collected blood was distributed in each well of a 96-well round-bottom cell culture plate (Corning Life Sciences, Tewksbury, MA). Blood was primed with 1 µg/ml Lipopolysaccharide (LPS) (E. coli O26:B6, Millipore, Burlington, MA) for 4.5 h, incubated at 37 °C with 5% CO2. Following LPS priming, blood was incubated with VEN-02XX pre-diluted in HBSS (Thermo Fisher Scientific, Waltham, MA) with 2% DMSO, for 30 min (top concentration 25 µM; 3-fold titration). Following drug incubation, blood was stimulated with 5 mM ATP (Millipore) for an additional 30 min at 37 °C with 5% CO2 under continuous shaking (450 RPM), after which conditioned media was collected for analysis of secreted IL-1β in an electrochemiluminescence immunoassay (Mesoscale Discovery).

5XFAD/Rubicon KO mice [3] = assay: Brain immunohistochemistry (Iba1, Aβ, pTau S396, NeuN) in 5XFAD/Rubicon KO mice; assay type: in vivo, mouse; details: 9 weeks PO QD
Experimental: as §1
Following post-mortem collection, the brain was placed in a mouse brain matrix and sliced along the sagittal suture to separate the hemispheres. The left hemisphere was immediately processed for downstream biochemical analyses by snap freezing in liquid nitrogen. The right half was drop-fixed in 4% PFA in PBS for 24 h and then washed 5x in fresh PBS before being submerged in 30% sucrose cryoprotectant solution for 24 h. After 24 h, brains were frozen in cryomolds in a 2:1 mixture of 30% sucrose and optimal cutting temperature compound (OCT), cryomolds were stored at −80 °C until use. For slide preparation, brains were allowed to acclimatize to −20 °C in a Thermo Shandon cryotome. After equilibration at −20 °C, tissue was cryostat sectioned at 25 μm (cortex) or 40 μm (free floating sections for hippocampus). Steam-mediated antigen retrieval was performed using 1x citrate buffer. Sections were rinsed in PBS, blocked in 3% bovine serum albumin/0.2% Triton X-100/PBS for 1 h, and incubated with primary antibodies in blocking buffer overnight at 4 °C (1:200 goat anti-Iba1 [Novus Biologicals, Centennial, CO], 1:500 mouse anti-Aβ 82E1 MOAB [Immuno-Biological Laboratories, Inc., Spring Lake Park, MN], 1:200 rabbit anti-pTau S396 [Cell Signaling, Danvers, MA], 1:200 mouse anti-NeuN [Cell Signaling]). Sections were incubated with appropriate secondary antibodies (Jackson ImmunoResearch, West Grove, PA) for 1 h at room temperature. For the complete list of antibodies please reference Supplementary Table 2. ProLong™ Diamond or ProLong™ Gold Antifade Mountant with or without 4’,6-diamidino-2-phenylindole (DAPI) counterstain (Thermo Fisher Scientific, Waltham, MA). Slides were imaged on a Zeiss Axio-observer A1 inverted microscope with an Andor iXon EMCCD camera and X-Cite LED fluorescence unit. Image analysis was performed using Fiji and 3DMorph AnalyzeSkeleton for microglial analyses.

NLRP1 = NLRP1 in vitro selectivity assay (Normal Human Epidermal Keratinocytes, Val-boroPro, IL-1β); assay type: cell-based; details: n = 2; top concentration 50 µM
Experimental: Normal Human Epidermal Keratinocytes pooled from juvenile donors (PromoCell, Heidelberg, Germany) were cultured in Keratinocyte Growth Medium 2 (PromoCell). Cells were seeded at 12,000 cells/well in a 96-well cell culture plate and incubated for 16 h at 37 °C with 5% CO2. The next day, the media was replaced with fresh media, and cells were pre-incubated for 60 min with VEN-02XX (top concentration 50 µM; 5-fold titration) before the addition of Val-boroPro mesylate (MedChemExpress, Monmouth Junction, NJ) at a final concentration of 7.5 µM. After a 30-h incubation at 37 °C with 5% CO2, supernatants were collected and IL-1β levels were determined in an electrochemiluminescence immunoassay (Mesoscale Discovery).

5XFAD/Rubicon KO mice [4] = assay: Brain cytokine/chemokine quantification (ECLIA) in 5XFAD/Rubicon KO mice; assay type: in vivo, mouse; details: 9 weeks PO QD
Experimental: as §1
Brain tissue was homogenized in PBS, pH 7.4 with 1X Halt™ protease inhibitor cocktail (Thermo Fisher Scientific, Waltham, MA) using a Bead Ruptor homogenizer (Omni International, Kennesaw, GA). Homogenates were clarified by centrifugation at 10,000 × g for 10 min. The crude homogenate was used for quantification of VEN-02XX levels, as described below. Total protein concentrations were quantified from clarified supernatants in a Pierce BCA protein assay (Thermo Fisher Scientific). Cytokine and chemokine levels were quantified using an electrochemiluminescence immunoassay (ECLIA) for IL-1β (total), TNFα, IL-6 and IP-10 (U-PLEX Custom Biomarker Group 1 (mouse) assay, Meso Scale Discovery, Rockville, MD) following the manufacturer’s instructions. Neurofilament light chain plasma levels were quantified using an enzyme-linked immunosorbent assay (ELISA) from Uman Diagnostics (CAT#: 20-8002) following the manufacturer’s instructions.

## CC(C)(O)CNc1nnc(-c2ccc(Cl)cc2C(F)(F)F)c2ccncc12 [VEN-02XX]
5XFAD/Rubicon KO mice [1]; 9 weeks, 0.01, 1, 20 mg/kg PO QD vs vehicle
  novel object recognition: striking dose-dependent improvement
5XFAD/Rubicon KO mice [1]; 9 weeks, 20 mg/kg PO QD
  novel object recognition, learning and memory: restoration of learning and memory to near wild type control levels for most animals
[2]; Mus musculus, IL-1β, geometric mean, n = 3
  IC50: 0.44 µM
[2]; in words
  potency of NLRP3 inhibition in whole blood: sub-micromolar potency
5XFAD/Rubicon KO mice [3]; 20 mg/kg, 3DMorph
  microglial branch length: significant increases in microglial branch length
5XFAD/Rubicon KO mice [3]; 20 mg/kg, cortex and CA3 region of hippocampus
  pTau S396 signal: almost complete suppression in pTau signal
5XFAD/Rubicon KO mice [3]
  microglia/plaque association (co-localization of Iba1 with amyloid): robust disassociation of the microglia from the Aβ plaques
5XFAD/Rubicon KO mice [3]; 3DMorph
  microglial soma volume: commensurate decreases in soma volume in a dose-dependent and statistically significant manner
5XFAD/Rubicon KO mice [3]; Iba1 staining
  gross microglial morphology: transition from the disease-associated active ameboid morphology towards a homeostatic ramified morphology
5XFAD/Rubicon KO mice [3]; NeuN stained sections
  CA3 and dentate gyrus thickness: significantly increased both CA3 and dentate gyrus (DG) thickness
5XFAD/Rubicon KO mice [3]; cortex and CA3 region of hippocampus
  phosphorylated tau (pTau S396) mean area: dose-dependent and statistically significant reduction in phosphorylated tau
5XFAD/Rubicon KO mice [3]; cortex and hippocampus
  Iba1 mean area (microglial activation): reduced the cumulative signal of the key microglial activation marker, Iba1, in both the cortex and hippocampus in a dose-dependent and statistically significant manner
  NeuN+ cell count (neuronal numbers): robust dose-dependent and statistically significant neuroprotective effect
5XFAD/Rubicon KO mice [3]; cortex and hippocampus, especially at higher doses
  Aβ plaque area/size: significant reduction in Aβ plaque area/size in both the cortex and hippocampus in a dose-dependent manner
5XFAD/Rubicon KO mice [3]; cortex and hippocampus, did not reach statistical significance
  Aβ plaque burden (cumulative plaque #): trending reduction in Aβ plaque burden
NLRP1
  block of IL-1β release downstream of NLRP1: inability to block IL-1β release
5XFAD/Rubicon KO mice [4]; 20 mg/kg, levels comparable to WT, lack of statistical significance
  hippocampal IL-1β (total), IL-6, IP-10 and TNFα levels: notable reduction in all measured inflammatory markers
5XFAD/Rubicon KO mice [4]
  hippocampal IL-1β: almost complete ablation of IL-1β within the hippocampus
